Experimental data from patent US5385842A, “Anthraquinones as inhibitors of sulfide production from sulfate-reducing bacteria” (E. I. Du Pont de Nemours and Company, priority 1993, dated 1995).

Experiments:
Assay type in all cases: cell-based
[1] = tested on: Thiobacillus denitrificans; experiment: Growth of Thiobacillus denitrificans
Method: Thiobacillus denitrificans was grown on BTZ-3 medium as defined in Example 1 (supplemented with reducing agent) and with 30 mM sodium nitrate plus 30 mM sodium thiosulfate. Cultures were anaerobic under a nitrogen atmosphere. Thus growth conditions mimicked those for the sulfate-reducingbacteria as closely as possible. […]

[2] = tested on: D. desulfuricans #ATCC27774; experiment: Rate of hydrogen utilization in the presence of different electron acceptors
Text: The following experiments show the effect of the 1,8-dihydroxy-anthraquinone on the rate of hydrogen utilization by bacteria in the presence of different electron acceptors.

[3] = tested on: D. desulfuricans strain G100A; experiment: Growth by pyruvate fermentation in the absence of sulfate
Method: D. desulfuricans strain G100A was grown using pyruvate fermentation in the absence of sulfate.

[4] = tested on: D. desulfuricans G100A; experiment: Growth of D. desulfuricans G100A after addition of inhibitor at 12 h
Method: Four 10 ml culture tubes of BTZ-3 medium as defined in Example 1 supplemented with sodium lactate (40 mM) and sodium sulfate (30 mM) and 0.5 ml of reducing agent were inoculated with 100 ul of a fully grown suspension of D. desulfuricans G100A. The culture was allowed to grow and the optical density at 660 nm was monitored until the cells entered into exponential growth (approx. 12-15 h, O.D. 660=0.1-0.2). At this time 100 ul of a 300 ppm solution of 1,8 dihydroxyanthraquinone, 1-chloranthraquinone or 3-chloro-2-anthraquinone carboxylic acid, respectively, was added to one of the tubes. The ethanol:water (80:20) solvent (100 μl ) was added to the fourth tube to serve as an uninhibited control.
#3 ppm inhibitor added at 12 hours

[5] = tested on: Desulfovibrio desulfuricans G100A; experiment: microbe, parasite or virus in culture; conditions: Desulfovibrio desulfuricans, G100A, read-out: % Inhib. (inhibition of sulfide production)

Structure (SMILES): O=C1c2cccc(O)c2C(=O)c2c(O)cccc21 [1,8-Dihydroxyanthraquinone]
- Optical Density @ 660 nm ([1]; 0 h of growth, before addition of 3 ppm at 19 h, control .02): .0
- effect on growth (in words) ([1]; 3 ppm): no effect on the growth of T. denitrificans
- Optical Density @ 660 nm ([1]; 12 h of growth, before addition of 3 ppm at 19 h, control .06): .06
- Optical Density @ 660 nm ([1]; 15 h of growth, before addition of 3 ppm at 19 h, control .08): .08
- Optical Density @ 660 nm ([1]; 19 h of growth, time of addition of 3 ppm, control .09): .09
- Optical Density @ 660 nm ([1]; 34 h of growth, 3 ppm added at 19 h, control .22): .22
- Optical Density @ 660 nm ([1]; 36 h of growth, 3 ppm added at 19 h, control .29): .25
- Optical Density @ 660 nm ([1]; 38 h of growth, 3 ppm added at 19 h, control .32): .27
- Optical Density @ 660 nm ([1]; 43 h of growth, 3 ppm added at 19 h, control .40): .32
- Optical Density @ 660 nm ([1]; 55 h of growth, 3 ppm added at 19 h, control 1.5): 1.5
- Hydrogen ([2]; Fumarate as electron acceptor, 3 ppm, 0 min, control 0): 0 µL
- Hydrogen ([2]; Fumarate as electron acceptor, 3 ppm, 10 min, control 9): 8 µL
- Hydrogen ([2]; Fumarate as electron acceptor, 3 ppm, 25 min, control 23): 25 µL
- Hydrogen ([2]; Fumarate as electron acceptor, 3 ppm, 40 min, control 47): 48 µL
- Hydrogen ([2]; Fumarate as electron acceptor, 3 ppm, 55 min, control 70): 74 µL
- Hydrogen ([2]; Fumarate as electron acceptor, 3 ppm, 70 min, control 95): 101 µL
- Hydrogen ([2]; Sulfate as electron acceptor, 3 ppm, 0 min, control 0): 0 µL
- Hydrogen ([2]; Sulfate as electron acceptor, 3 ppm, 10 min, control 15): 3 µL
- Hydrogen ([2]; Sulfate as electron acceptor, 3 ppm, 25 min, control 44): 14 µL
- Hydrogen ([2]; Sulfate as electron acceptor, 3 ppm, 40 min, control 76): 21 µL
- Hydrogen ([2]; Sulfate as electron acceptor, 3 ppm, 55 min, control 107): 28 µL
- Hydrogen ([2]; Sulfate as electron acceptor, 3 ppm, 70 min, control 152): 38 µL
- Hydrogen ([2]; Sulfate as electron acceptor, 3 ppm, 85 min, control 208): 45 µL
- Hydrogen ([2]; Sulfate as electron acceptor, 3 ppm, 100 min, control 266): 56 µL
- Hydrogen ([2]; Sulfate as electron acceptor, 3 ppm, 115 min, control 336): 74 µL
- Hydrogen ([2]; Sulfite as electron acceptor, 3 ppm, 0 min, control 0): 0 µL
- Hydrogen ([2]; Sulfite as electron acceptor, 3 ppm, 6 min, control 7): 7 µL
- Hydrogen ([2]; Sulfite as electron acceptor, 3 ppm, 16 min, control 26): 25 µL
- Hydrogen ([2]; Sulfite as electron acceptor, 3 ppm, 26 min, control 45): 43 µL
- Hydrogen ([2]; Sulfite as electron acceptor, 3 ppm, 59 min, control 139): 141 µL
- Hydrogen ([2]; Sulfite as electron acceptor, 3 ppm, 71 min, control 179): 183 µL
- Hydrogen ([2]; Thiosulfate as electron acceptor, +6 ppm, 0 min, control 0): 0 µL
- Hydrogen ([2]; Thiosulfate as electron acceptor, +6 ppm, 11 min, control 38): 33 µL
- Hydrogen ([2]; Thiosulfate as electron acceptor, +6 ppm, 21 min, control 90): 73 µL
- Hydrogen ([2]; Thiosulfate as electron acceptor, +6 ppm, 31 min, control 144): 118 µL
- Hydrogen ([2]; Thiosulfate as electron acceptor, +6 ppm, 41 min, control 204): 176 µL
- Optical Density @ 660 nm ([3]; 0 h, before addition of 3 ppm at 6.5 h, control .11): .1
- effect on fermentative growth (in words) ([3]; 3 ppm): did not affect fermentative growth
- Optical Density @ 660 nm ([3]; 2 h, before addition of 3 ppm at 6.5 h, control .12): .12
- Optical Density @ 660 nm ([3]; 3.5 h, before addition of 3 ppm at 6.5 h, control .14): .14
- Optical Density @ 660 nm ([3]; 6.5 h, time of addition of 3 ppm, control .15): .16
- Optical Density @ 660 nm ([3]; 8.5 h, 3 ppm added at 6.5 h, control .18): .16
- Optical Density @ 660 nm ([3]; 10.7 h, 3 ppm added at 6.5 h, control .19): .17
- Optical Density @ 660 nm ([3]; 25 h, 3 ppm added at 6.5 h, control .26): .22
- Optical Density @ 660 nm ([3]; 32 h, 3 ppm added at 6.5 h, control .37): .34
- Optical Density @ 660 nm ([3]; 45 h, 3 ppm added at 6.5 h, control .46): .45
- optical density reading at 660 nm ([4]; 0 h of growth, before addition of 3 ppm inhibitor at 12 h): .01
- optical density reading at 660 nm ([4]; 10 h of growth, before addition of 3 ppm inhibitor at 12 h): .12
- optical density reading at 660 nm ([4]; 12 h of growth, 3 ppm inhibitor added at 12 h): .20
- optical density reading at 660 nm ([4]; 14 h of growth, 3 ppm inhibitor added at 12 h): .19
- optical density reading at 660 nm ([4]; 18 h of growth, 3 ppm inhibitor added at 12 h): .16
- optical density reading at 660 nm ([4]; 20 h of growth, 3 ppm inhibitor added at 12 h): .16
- optical density reading at 660 nm ([4]; 24 h of growth, 3 ppm inhibitor added at 12 h): .16
- optical density reading at 660 nm ([4]; 29 h of growth, 3 ppm inhibitor added at 12 h): .18
- optical density reading at 660 nm ([4]; 34 h of growth, 3 ppm inhibitor added at 12 h): .18
- optical density reading at 660 nm ([4]; 62 h of growth, 3 ppm inhibitor added at 12 h): .30
- optical density reading at 660 nm ([4]; 92 h of growth, 3 ppm inhibitor added at 12 h): .28
- inhibition at 10 ppm [5]: 82.2%
